For 20 compounds, IC50 results are on record in US20100317850A1 (priority 2008, published 2010).

The IC50 is the concentration needed to halve the response being measured.

For the test, the system named is Aβ42 production. Description: Quantification of Aβ peptide in culture of neurons from rat fetus brain (Aβ ELISA). Type of test: cell-based. The conditions noted are these: Neuron, 72 h; rat primary neuronal culture (cerebral cortex, embryonic day 18 Wistar rats); medium collected three days after addition of the compound; Aβx-42 ELISA; read-out: Aβ42 production reducing effect IC50. On the procedure: Quantification of Aβ Peptide in Culture of Neurons from Rat Fetus Brain
(1) Rat Primary Neuronal Culture
Primary neuronal cultures were prepared from the cerebral cortex of embryonic day 18 Wistar rats (Charles River Japan, Yokohama, Japan). Specifically, the embryos were aseptically removed from pregnant rats under ether anesthesia. The brain was isolated from the embryo and immersed in an ice-cold L-15 medium (such as Invitrogen Corp. Cat #11415-064, Carlsbad, Calif., USA, or SIGMA L1518). The cerebral cortex was collected from the isolated brain under a stereoscopic microscope. The cerebral cortex fragments collected were enzymatically treated in an enzyme solution containing 0.25% trypsin (Invitrogen Corp. Cat #15050-065, Carlsbad, Calif., USA) and 0.01% DNase (Sigma D5025, St. Louis, Mo., USA) at 37° C. for 30 minutes to disperse the cells. Here, the enzymatic reaction was stopped by adding inactivated horse serum to the solution. The enzymatically treated solution was centrifuged at 1,500 rpm for five minutes to remove the supernatant. 5 to 10 mL of a medium was added to the resulting cell mass. Neurobasal medium (Invitrogen Corp. Cat #21103-049, Carlsbad, Calif., USA) supplemented with 2% B27 supplement (Invitrogen Corp. Cat #17504-044, Carlsbad, Calif., USA), 25 μM 2-mercaptoethanol (2-ME, WAKO Cat #139-06861, Osaka, Japan), 0.5 mM L-glutamine (Invitrogen Corp. Cat #25030-081, Carlsbad, Calif., USA), and Antibiotics-Antimycotics (Invitrogen Corp. Cat #15240-062, Carlsbad, Calif., USA) was used as the medium (Neurobasal/B27/2-ME). However, the above Neurobasal medium not supplemented with 2-ME (Neurobasal/B27) was used for the assay. The cells were redispersed by mild pipetting of the cell mass to which the medium was added. The cell dispersion was filtered through a 40-μm nylon mesh (Cell Strainer, Cat #35-2340, Becton Dickinson Labware, Franklin Lakes, N.J., USA) to remove the remaining cell mass, and thus a neuronal cell suspension was obtained. The neuronal cell suspension was diluted with the medium and then plated in a volume of 100 μL/well at an initial cell density of 5×10^5 cells/cm^2 in a 96-well polystyrene culture plate pre-coated with poly-L or D-lysine (Falcon Cat #35-3075, Becton Dickinson Labware, Franklin Lakes, N.J., USA coated with poly-L-lysine using the method shown below, or BIOCOAT™ cell environments Poly-D-lysine cell ware 96-well plate, Cat #35-6461, Becton Dickinson Labware, Franklin Lakes, N.J., USA). Poly-L-lysine coating was carried out as follows. 100 μg/mL of a poly-L-lysine (SIGMA P2636, St. Louis, Mo., USA) solution was aseptically prepared with a 0.15 M borate buffer (pH 8.5). […] of the solution was added to the 96-well polystyrene culture plate and incubated at room temperature for one or more hours or at 4° C. overnight or longer. Thereafter, the coated 96-well polystyrene culture plate was washed with sterile water four or more times, and then dried or rinsed with, for example, sterile PBS or medium, and used for cell plating. The plated cells were cultured in the culture plate at 37° C. in 5% CO2-95% air for one day. Then, the total amount of the medium was replaced with a fresh Neurobasal™/B27/2-ME medium, and then the cells were cultured for further three days.
The drug was added to the culture plate on Day 4 of culture as follows. The total amount of the medium was removed from the wells, and 180 μL/well of Neurobasal medium not containing 2-ME and containing 2% B-27 (Neurobasal/B27) was added thereto. A solution of the test compound in dimethyl sulfoxide (hereinafter abbreviated as DMSO) was diluted with Neurobasal/B27 to a concentration 10-fold higher than the final concentration. 20 μL/well of the dilution was added to and sufficiently mixed with the medium. The final DMSO concentration was 1% or less. Only DMSO was added to the control group.
The cells were cultured for three days after addition of the compound, and the total amount of the medium was collected. […]

Regarding `NC1=N[C@@]2(c3cc(NC(=O)c4cnc(C(F)F)cn4)ccc3F)CCO[C@H](CF)[C@H]2CS1` (relative stereo) [Example 146, N-[3-((4aS*,5S*,8aS*)-2-amino-5-fluoromethyl-4a,5,7,8-tetrahydro-4H-6-oxa-3-thia-1-azanaphthalen-8a-yl)-4-fluorophenyl]-5-difluoromethylpyrazine-2-carboxamide], the IC50 is 32 nM. As to `CO[C@@H]1C[C@H]2CSC(N)=N[C@@]2(c2cc(NC(=O)c3cnc(C(F)F)cn3)ccc2F)C1` (relative stereo) [Example 93, (+)-N-[3-((4aR*,6R*,7aS*)-2-amino-6-methoxy-4a,5,6,7-tetrahydro-4H-cyclopenta[d][1,3]thiazin-7a-yl)-4-fluorophenyl]-5-difluoromethylpyrazine-2-carboxamide], the IC50 came out at 3 nM. On to `NC1=N[C@@]2(c3cc(NC(=O)c4ccc(Br)cn4)ccc3F)CCCCC[C@H]2CS1` (single isomer, unassigned) [Example 249, N-[3-((4aR*,9aS*)-2-amino-4a,5,6,7,8,9-hexahydro-4H-cyclohepta[d][1,3]thiazin-9a-yl)-4-fluroophenyl]-5-bromopyridine-2-carboxamide], for which the IC50 turned out to be 18 nM. Regarding `NC1=N[C@@]2(c3cc(NC(=O)c4ccc(OC(F)F)cn4)ccc3F)CCO[C@H](CF)[C@H]2CS1` (relative stereo) [Example 147, N-[3-((4aS*,5S*,8aS*)-2-amino-5-fluoromethyl-4a,5,7,8-tetrahydro-4H-6-oxa-3-thia-1-azanaphthalen-8a-yl)-4-fluorophenyl]-5-difluoromethoxypyridine-2-carboxamide], the IC50 was determined as 12 nM. For `NC1=N[C@@]2(c3cc(NC(=O)c4ccc(C#CC5CC5)cn4)ccc3F)CCC[C@H]2CS1` (single isomer, unassigned) [Example 132, N-[3-((4aR*,7aS*)-2-amino-4a,5,6,7-tetrahydro-4H-cyclopenta[d][1,3]thiazin-7a-yl)-4-fluorophenyl]-5-cyclopropylethynyl-pyridine-2-carboxamide], the IC50 came to 44 nM. For the compound `NC1=N[C@@]2(c3cc(NC(=O)c4cnc(OCC(F)F)cn4)ccc3F)CCC[C@H]2CS1` (single isomer, unassigned) [Example 181, N-[3-((4aR*,7aS*)-2-amino-4a,5,6,7-tetrahydro-4H-cyclopenta[d][1,3]thiazin-7a-yl)-4-fluorophenyl]-5-(2,2-difluoroethoxy)-pyrazine-2-carboxamide], the IC50 was found to be 47 nM. The figure for `NC1=N[C@@]2(c3cccc(-c4cncnc4)c3)CN(c3cnccn3)C[C@H]2CS1` [Example 230] is 202 nM; for `NC1=N[C@@]2(c3cc(NC(=O)c4cnc(OC(F)F)cn4)ccc3F)CCC[C@H]2CS1` (single isomer, unassigned) [Example 20, N-[3-((4aR*,7aS*)-2-amino-4a,5,6,7-tetrahydro-4,1-cyclopenta[d][1,3]thiazin-7a-yl-4-fluorophenyl]-5-difluoromethoxypyrazine-2-carboxamide] it is 5 nM. With `CCO[C@@H]1C[C@H]2CSC(N)=N[C@@]2(c2cc(NC(=O)c3ccc(C#N)cn3)ccc2F)C1` (relative stereo) [Example 90, (+)-N-[3-((4aR*,6R*,7aS*)-2-amino-6-ethoxy-4a,5,6,7-tetrahydro-4H-cyclopenta[d][1,3]thiazin-7a-yl)-4-fluorophenyl]-5-cyanopyridine-2-carboxamide], the IC50 turned out to be 2.5 nM. With `NC1=N[C@@]2(c3cc(NC(=O)c4ccc(C(F)(F)F)cn4)ccc3F)CO[C@H](CF)[C@H]2CS1` [Example 70, N-[3-((4aS,5S,7aS)-2-amino-5-fluoromethyl-4a,5-dihydro-4H-furo[3,4-d][1,3]thiazin-7a-yl)-4-fluorophenyl]-5-trifluoromethylpyridine-2-carboxamide], the IC50 was 2 nM.

Consider `NC1=N[C@@]2(c3cc(NC(=O)c4ncccc4F)ccc3F)CCC[C@H]2CS1` (single isomer, unassigned) [Example 171, N-[3-((4aR*,7aS*)-2-amino-4a,5,6,7-tetrahydro-4H-cyclopenta[d][1,3]thiazin-7a-yl)-4-fluorophenyl]-3-fluoropyridine-2-carboxamide], for which the IC50 worked out at 89 nM. As to `C[C@H]1OC[C@]2(c3cc(NC(=O)c4cnc(OC(F)F)cn4)ccc3F)N=C(N)SC[C@H]12` (relative stereo) [Example 55, N-[3-((4aS*,5R*,7aS*)-2-amino-5-methyl-4a,5-dihydro-4H-furo[3,4-d][1,3]thiazin-7a-yl)-4-fluorophenyl]-5-difluoromethoxypyrazine-2-carboxamide], the IC50 stood at 1.1 nM. For the compound `NC1=N[C@@]2(c3cc(NC(=O)c4ccc(Br)cn4)ccc3F)COC[C@H]2CS1` (relative stereo) [Example 166, N-[3-((4aS*,7aS*)-2-amino-4a,5-dihydro-4H-furo[3,4-d][1,3]thiazin-7a-yl)-4-fluorophenyl]-5-bromopyridine-2-carboxamide], the IC50 worked out at 4 nM. With `NC1=N[C@@]2(c3cccc(-c4cccnc4F)c3)CN(C(=O)CC3CC3)C[C@H]2CS1` [Example 48] the figure was 575 nM; with `CC(=O)c1ccc(C(=O)Nc2ccc(F)c([C@]34CCC[C@H]3CSC(N)=N4)c2)nc1` [Example 237], 80 nM. Regarding `NC1=N[C@@]2(c3cc(NC(=O)c4cnc(OCF)cn4)ccc3F)CO[C@H](CF)[C@H]2CS1` [Example 75, N-[3-((4aS,5,7aS)-2-amino-5-fluoromethyl-4a,5-dihydro-4H-furo[3,4-d][1,3]thiazin-7a-yl)-4-fluorophenyl]-5-fluoromethoxypyrazine-2-carboxamide], the IC50 worked out at 3 nM. Turning to `NC1=N[C@@]2(c3cc(NC(=O)c4ccc(Cl)cn4)ccc3F)CCO[C@H](CF)[C@H]2CS1` (relative stereo) [Example 148, N-[3-((4aS*,5S*,8aS*)-2-amino-5-fluoromethyl-4a,5,7,8-tetrahydro-4H-6-oxa-3-thia-1-azanaphthalen-8a-yl)-4-fluorophenyl]-5-chloropyridine-2-carboxamide], the IC50 is 9 nM. For the compound `N#Cc1ccc(C(=O)Nc2cc(F)cc([C@]34CCC[C@H]3CSC(N)=N4)c2)nc1` (racemic) [Example 158, (±)-N-[3-((4aR*,7aS*)-2-amino-4a,5,6,7-tetrahydro-4H-cyclopenta[d][1,3]thiazin-7a-yl)-5-fluorophenyl]-5-cyanopyridine-2-carboxamide], the IC50 was found to be 53 nM. With `NC1=N[C@@]2(c3cc(NC(=O)c4ccc(Br)cn4)ccc3F)CCOC[C@H]2CS1` (single isomer, unassigned) [Example 142, N-[3-((4aS*,8aS*)-2-amino-4a,5,7,8-tetrahydro-4H-6-oxa-3-thia-1-azanaphthalen-8a-yl)-4-fluorophenyl]-5-bromopyridine-2-carboxamide] the figure was 10 nM; with `NC1=N[C@@]2(c3cc(NC(=O)c4ccc(-c5nccs5)cn4)ccc3F)CCC[C@H]2CS1` (single isomer, unassigned) [Example 133, N-[3-((4aR*,7aS*)-2-amino-4a,5,6,7-tetrahydro-4H-cyclopenta[d][1,3]thiazin-7a-yl)-4-fluorophenyl]-5-thiazol-2-yl-pyridine-2-carboxamide], 63 nM.
